This is an account of results in patent US9682976B2, “Protein kinase C inhibitors and uses thereof” (Rigel Pharmaceuticals, Inc., priority 2012, dated 2017).

Counter-ions that a name gives are not always drawn.

As a reminder, the EC50 is the concentration that produces a half-maximal response. Read a high EC50 as weaker potency.

The test concerns PKC mediated IL-2 production. The test is described as follows: IL-2 ELISA, human primary T cell, anti CD3+CD28+. The test is classed as cell-based. The conditions noted are these: human primary T cells stimulated with αCD3 and αCD28, 24 hours. In outline:
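Human peripheral blood T cells, pre-expanded with αCD3/αCD28 and IL-2 and then washed free of IL-2, were pre-incubated with compound for 1 h at 37° C. They were then stimulated on plates coated with […] αCD3 and 5 μg/ml αCD28, or with 0.5 ng/ml PMA plus 0.1 uM ionomycin in the counter assay. IL-2 in supernatants was measured by ELISA after 24 h.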
(In general: An ELISA detects its analyte on a solid surface through an enzyme-linked reagent.)

For `CN(C)CCOc1cc(F)c(N(CCN(C)C)c2ncc(F)c(N[C@@H]3C[C@@H]4CCCN4C(C)(C)C3)n2)cc1-n1nnn(C)c1=O` [Compound 193, 1-(2-(2-(dimethylamino)ethoxy)-5-((2-(dimethylamino)ethyl)(4-(((7R,8aS)-5,5-dimethyloctahydroindolizin-7-yl)amino)-5-fluoropyrimidin-2-yl)amino)-4-fluorophenyl)-4-methyl-1,4-dihydro-5H-tetrazol-5-one], the EC50 (Homo sapiens, T-cell, 24 h) lay in the range of 100 to 500 nM. On the same count and under the same terms, with `Cn1nnn(-c2cc(Nc3ncc(C#N)c(N[C@@H]4C[C@@H]5CCCN5C(C)(C)C4)n3)c(F)cc2OC2CCOC2)c1=O` (some centres unmarked) [Compound 111] the figure was 100 to 500 nM; with `CSc1nnnn1-c1cc(Nc2ncc(F)c(N[C@@H]3C[C@@H]4CCCN4C(C)(C)C3)n2)ccc1C` [Compound 281, 5-fluoro-N4-((7R,8aS)-octahydro-5,5-dimethylindolizin-7-yl)-N2-(4-methyl-3-(5-(methylthio)-1H-tetrazol-1-yl)phenyl)pyrimidine-2,4-diamine], less than 100 nM.

`CC1(C)C[C@H](Nc2nc(Nc3ccc(OCC4COC4)c(C#N)c3)ncc2F)C[C@@H]2CCCN21` [Compound 175, 5-(4-((7R,8aS)-5,5-dimethyloctahydroindolizin-7-ylamino)-5-fluoropyrimidin-2-ylamino)-2-(oxetan-3-ylmethoxy)benzonitrile] yielded an EC50 (Homo sapiens, T-cell, 24 h) of 500 to 1000 nM. Still for that read-out and setting: the result for `CC1(C)C[C@H](Nc2nc(Nc3ccc(OCC4COCCO4)c(C#N)c3)ncc2F)C[C@@H]2CCCN21` (stereo partly drawn) [Compound 177, 2-((1,4-dioxan-2-yl)methoxy)-5-(4-((7R,8aS)-5,5-dimethyloctahydroindolizin-7-ylamino)-5-fluoropyrimidin-2-ylamino)benzonitrile] reads 100 to 500 nM. `Cn1nnn(-c2cc(Nc3ncc(F)c(NC4CCN5C(CCC5(C)C)C4)n3)c(F)cc2C2CC2)c1=O` (single isomer, unassigned) [Compound 34, 1-(5-(5-fluoro-4-(octahydro-3,3-dimethylindolizin-7-ylamino)pyrimidin-2-ylamino)-2-cyclopropyl-4-fluorophenyl)-4-methyl-1H-tetrazol-5(4H)-one] had an EC50 (Homo sapiens, T-cell, 24 h) of 1000 to 10000 nM.

Compound `CC1(C)Oc2cc(Nc3ncc(F)c(N[C@@H]4C[C@@H]5CCCN5C(C)(C)C4)n3)ccc2N(CC2CC2)C1=O` [Compound 105, 4-(cyclopropylmethyl)-7-((4-(((7R,8aS)-5,5-dimethyloctahydroindolizin-7-yl)amino)-5-fluoropyrimidin-2-yl)amino)-2,2-dimethyl-2H-benzo[b][1,4]oxazin-3(4H)-one] yielded an EC50 (Homo sapiens, T-cell, 24 h) of 500 to 1000 nM. In the case of `CN1CCN(c2ccc(Nc3ncc(F)c(N[C@@H]4C[C@@H]5CCCN5C(C)(C)C4)n3)cc2C#N)CC1` [Compound 108, 5-((4-(((7R,8aS)-5,5-dimethyloctahydroindolizin-7-yl)amino)-5-fluoropyrimidin-2-yl)amino)-2-(4-methylpiperazin-1-yl)benzonitrile], under “Homo sapiens, T-cell, 24 h”, the half-maximal effective concentration (EC50) is less than 100 nM.

Compound `CC1(C)C[C@H](Nc2nc(Nc3ccc(N4CCC5(CC4)COC5)c(C#N)c3)ncc2F)C[C@@H]2CCCN21` [Compound 100, 5-(4-((7R,8aS)-5,5-dimethyloctahydroindolizin-7-ylamino)-5-fluoropyrimidin-2-ylamino)-2-(2-oxa-7-azaspiro[3.5]nonan-7-yl)benzonitrile] yielded an EC50 (Homo sapiens, T-cell, 24 h) of 100 to 500 nM.

Under “Homo sapiens, T-cell, 24 h”, `CC1(C)CC(Nc2nc(Nc3ccc(OC4COC4)c(C#N)c3)ncc2F)CC2CCCN21` (centres unmarked) [Compound 63, 5-(5-Fluoro-4-(octahydro-5,5-dimethylindolizin-7-ylamino)pyrimidin-2-ylamino)-2-(oxetan-3-yloxy)benzonitrile] showed an EC50 of 100 to 500 nM.

Where the note is “Homo sapiens, T-cell, 24 h”, `CC1(C)Oc2ccc(Nc3ncc(F)c(N[C@@H]4C[C@@H]5CCCN5C(C)(C)C4)n3)cc2O1` [Compound 157, N2-(2,2-dimethylbenzo[d][1,3]dioxol-5-yl)-N4-((7R,8aS)-5,5-dimethyloctahydroindolizin-7-yl)-5-fluoropyrimidine-2,4-diamine] showed an EC50 of 1000 to 10000 nM. Compound `COc1ccc(Nc2ncc(F)c(N[C@@H]3C[C@@H]4CCCN4C(C)(C)C3)n2)cc1-n1nnn(C)c1=O` [Compound 278, 1-(5-(4-((7R,8aS)-octahydro-5,5-dimethylindolizin-7-ylamino)-5-fluoropyrimidin-2-ylamino)-2-methoxyphenyl)-4-methyl-1H-tetrazol-5(4H)-one] showed an EC50 (Homo sapiens, T-cell, 24 h) of less than 100 nM.

Compound `CC1(C)C[C@H](Nc2nc(Nc3ccc(O[C@H]4CCNC[C@@H]4F)c(Cl)c3)ncc2F)C[C@@H]2CCCN21` [Compound 123] registered an EC50 (Homo sapiens, T-cell, 24 h) of less than 100 nM. Same read-out and setting: with `Cn1nnn(-c2cc(Nc3ncc(F)c(N[C@@H]4C[C@@H]5CCCN5C(C)(C)C4)n3)c(F)cc2O[C@H]2CCOC2)c1=O` [Compound 110, 1-(5-((4-(((7R,8aS)-5,5-dimethyloctahydroindolizin-7-yl)amino)-5-fluoropyrimidin-2-yl)amino)-4-fluoro-2-(((S)-tetrahydrofuran-3-yl)oxy)phenyl)-4-methyl-1,4-dihydro-5H-tetrazol-5-one] the figure was 100 to 500 nM; with `CC1(C)C[C@H](Nc2nc(Nc3ccc(F)c(-n4nnnc4C4CC4)c3)ncc2F)C[C@@H]2CCCN21` [Compound 143, N2-(3-(5-cyclopropyl-1H-tetrazol-1-yl)-4-fluorophenyl)-N4-((7R,8aS)-5,5-dimethyloctahydroindolizin-7-yl)-5-fluoropyrimidine-2,4-diamine], less than 100 nM; with `CN1C(=O)C(C)(C)Oc2ccc(Nc3ncc(F)c(N[C@@H]4C[C@@H]5CCCN5C(C)(C)C4)n3)cc21` [Compound 318], 500 to 1000 nM. The same measure, in the same setting: the result for `CC1(C)C[C@H](Nc2nc(Nc3cccc(-n4nn[nH]c4=O)c3)ncc2F)C[C@@H]2CCCN21` [Compound 260, 1-(3-(4-((7R,8aS)-octahydro-5,5-dimethylindolizin-7-ylamino)-5-fluoropyrimidin-2-ylamino)phenyl)-1H-tetrazol-5(4H)-one] reads more than 10000 nM. Same read-out and setting: with `Cc1ccc(Nc2ncc(F)c(N[C@@H]3C[C@@H]4CCCN4C(C)(C)C3)n2)cc1-n1nnn(C)c1=O` [Compound 273, 1-(5-(4-((7R,8aS)-octahydro-5,5-dimethylindolizin-7-ylamino)-5-fluoropyrimidin-2-ylamino)-2-methylphenyl)-4-methyl-1H-tetrazol-5(4H)-one] the figure was less than 100 nM. `CC(C)N1CCC(Oc2ccc(Nc3ncc(F)c(N[C@@H]4C[C@@H]5CCCN5C(C)(C)C4)n3)cc2OC(F)F)CC1` (single isomer, unassigned) [Compound 10, (R/S, S/R, R/R, S/S)-N^2-(4-(1-isopropylpiperidin-4-yloxy)-3-(difluoromethoxy)phenyl)-5-fluoro-N^4-(octahydro-5,5-dimethylindolizin-7-yl)pyrimidine-2,4-diamine] displayed an EC50 of 100 to 500 nM.

For the compound `CC1(C)C[C@H](Nc2nc(Nc3cccc(-n4nnnc4S(C)(=O)=O)c3)ncc2F)C[C@@H]2CCCN21` [Compound 269, 5-fluoro-N4-((7R,8aS)-octahydro-5,5-dimethylindolizin-7-yl)-N2-(3-(5-(methylsulfonyl)-1H-tetrazol-1-yl)phenyl)pyrimidine-2,4-diamine], for the setting “Homo sapiens, T-cell, 24 h”, the EC50 fell in the range of 500 to 1000 nM.

In turn, `Cn1nnn(-c2cc(Nc3ncc(F)c(N[C@H]4CCN5[C@@H](CCC5(C)C)C4)n3)c(F)cc2C2CC2)c1=O` (single isomer, unassigned) [Compound 37] had an EC50 of 1000 to 10000 nM.

The compound `COc1cc(Nc2ncc(F)c(N[C@@H]3C[C@@H]4CCCN4C(C)(C)C3)n2)ccc1OCCO` [Compound 216, 2-(4-((4-(((7R,8aS)-5,5-dimethyloctahydroindolizin-7-yl)amino)-5-fluoropyrimidin-2-yl)amino)-2-methoxyphenoxy)ethan-1-ol] came in with an EC50 (Homo sapiens, T-cell, 24 h) of more than 10000 nM.

Under “Homo sapiens, T-cell, 24 h”, `Cn1nnn(-c2cc(Nc3ncc(F)c(N[C@@H]4C[C@@H]5CCCN5C(C)(C)C4)n3)ccc2N2CC(O)C2)c1=O` [Compound 328, 1-(5-(4-((7R,8aS)-octahydro-5,5-dimethylindolizin-7-ylamino)-5-fluoropyrimidin-2-ylamino)-2-(3-hydroxyazetidin-1-yl)phenyl)-4-methyl-1H-tetrazol-5(4H)-one] yielded an EC50 of 1000 to 10000 nM. Take `COCCOCCOc1cc(F)c(Nc2ncc(F)c(N[C@@H]3C[C@@H]4CCCN4C(C)(C)C3)n2)cc1-n1nnn(C)c1=O` [Compound 198, 1-(5-((4-(((7R,8aS)-5,5-dimethyloctahydroindolizin-7-yl)amino)-5-fluoropyrimidin-2-yl)amino)-4-fluoro-2-(2-(2-methoxyethoxy)ethoxy)phenyl)-4-methyl-1,4-dihydro-5H-tetrazol-5-one]: the EC50 (Homo sapiens, T-cell, 24 h) fell in the range of 1000 to 10000 nM. The same measure, in the same setting: with `COC(=O)c1ccc(Nc2ncc(F)c(N[C@@H]3C[C@@H]4CCCN4C(C)(C)C3)n2)cc1C(F)(F)F` [Compound 320] the figure was 100 to 500 nM; with `CC1(C)C[C@H](Nc2nc(Nc3cc(-n4nnnc4C4CC4)ccc3F)ncc2Cl)C[C@@H]2CCCN21` [Compound 164, 5-chloro-N2-(5-(5-cyclopropyl-1H-tetrazol-1-yl)-2-fluorophenyl)-N4-((7R,8aS)-5,5-dimethyloctahydroindolizin-7-yl)pyrimidine-2,4-diamine], less than 100 nM.

For `Cn1nnn(-c2cc(Nc3ncc(F)c(N[C@H]4C[C@@H]5CCC(=O)N5C(C)(C)C4)n3)c(F)cc2C2CC2)c1=O` [Compound 33, 1-(5-(5-fluoro-4-(hexahydro-5,5-dimethylindolizin-3(5H)-one-7-ylamino)pyrimidin-2-ylamino)-2-cyclopropyl-4-fluorophenyl)-4-methyl-1H-tetrazol-5(4H)-one formate], the EC50 lay within 1000 to 10000 nM. As to `C[C@@H](O)COc1cc(F)c(Nc2ncc(F)c(N[C@@H]3C[C@@H]4CCCN4C(C)(C)C3)n2)cc1-n1nnn(C)c1=O` [Compound 82], the EC50 is less than 100 nM. The compound `Cc1ccc(Nc2ncc(F)c(N[C@H]3C[C@@H]4CC(F)(F)CN4C(C)(C)C3)n2)cc1C#N` [Compound 44, 5-(4-((7S,8aR)-2,2-difluoro-octahydro-5,5-dimethylindolizin-7-ylamino)-5-fluoropyrimidin-2-ylamino)-2-methylbenzonitrile] came in with an EC50 (Homo sapiens, T-cell, 24 h) of 1000 to 10000 nM.
